pIC50: −log10 of the molar value. Read-outs that look alike come from different tables or passages of the source.
Legend:
[1] = molecular target: T1, hNKCC1a (Homo sapiens, UniProt P55011); settings: cited from earlier work
T1 sequence (P55011 1-1212): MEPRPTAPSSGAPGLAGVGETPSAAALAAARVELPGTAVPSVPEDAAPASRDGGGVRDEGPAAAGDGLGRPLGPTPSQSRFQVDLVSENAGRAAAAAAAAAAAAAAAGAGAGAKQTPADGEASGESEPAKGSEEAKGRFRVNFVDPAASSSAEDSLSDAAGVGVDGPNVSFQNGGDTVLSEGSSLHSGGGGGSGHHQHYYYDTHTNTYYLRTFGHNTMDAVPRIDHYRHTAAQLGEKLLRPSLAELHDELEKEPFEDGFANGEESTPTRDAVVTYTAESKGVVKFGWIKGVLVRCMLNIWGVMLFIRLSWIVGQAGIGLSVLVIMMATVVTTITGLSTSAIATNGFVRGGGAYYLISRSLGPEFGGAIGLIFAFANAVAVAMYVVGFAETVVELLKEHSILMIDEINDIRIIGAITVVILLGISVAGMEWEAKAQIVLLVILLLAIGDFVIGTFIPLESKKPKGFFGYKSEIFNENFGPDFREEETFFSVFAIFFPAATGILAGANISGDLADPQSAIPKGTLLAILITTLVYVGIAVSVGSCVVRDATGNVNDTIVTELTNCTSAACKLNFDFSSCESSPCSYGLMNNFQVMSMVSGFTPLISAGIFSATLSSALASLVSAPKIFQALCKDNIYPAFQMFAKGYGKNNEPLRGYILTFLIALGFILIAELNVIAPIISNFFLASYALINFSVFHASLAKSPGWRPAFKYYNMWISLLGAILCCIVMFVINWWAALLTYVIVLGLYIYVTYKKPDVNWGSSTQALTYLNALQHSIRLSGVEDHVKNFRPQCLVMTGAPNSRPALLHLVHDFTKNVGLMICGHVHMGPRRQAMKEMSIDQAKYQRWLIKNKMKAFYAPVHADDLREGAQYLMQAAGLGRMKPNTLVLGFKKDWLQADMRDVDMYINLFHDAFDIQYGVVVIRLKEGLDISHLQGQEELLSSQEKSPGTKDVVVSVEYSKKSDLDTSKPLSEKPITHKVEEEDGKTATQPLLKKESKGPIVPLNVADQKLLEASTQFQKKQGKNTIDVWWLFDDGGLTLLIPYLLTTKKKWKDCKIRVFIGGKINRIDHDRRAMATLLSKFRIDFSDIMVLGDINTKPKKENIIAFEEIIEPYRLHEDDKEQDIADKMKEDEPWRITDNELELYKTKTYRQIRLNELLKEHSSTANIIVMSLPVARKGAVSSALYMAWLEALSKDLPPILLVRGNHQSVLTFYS

[2] = molecular target: T2, NKCC2 (Homo sapiens, UniProt Q13621); settings: cited from earlier work
T2 sequence (Q13621 1-1099): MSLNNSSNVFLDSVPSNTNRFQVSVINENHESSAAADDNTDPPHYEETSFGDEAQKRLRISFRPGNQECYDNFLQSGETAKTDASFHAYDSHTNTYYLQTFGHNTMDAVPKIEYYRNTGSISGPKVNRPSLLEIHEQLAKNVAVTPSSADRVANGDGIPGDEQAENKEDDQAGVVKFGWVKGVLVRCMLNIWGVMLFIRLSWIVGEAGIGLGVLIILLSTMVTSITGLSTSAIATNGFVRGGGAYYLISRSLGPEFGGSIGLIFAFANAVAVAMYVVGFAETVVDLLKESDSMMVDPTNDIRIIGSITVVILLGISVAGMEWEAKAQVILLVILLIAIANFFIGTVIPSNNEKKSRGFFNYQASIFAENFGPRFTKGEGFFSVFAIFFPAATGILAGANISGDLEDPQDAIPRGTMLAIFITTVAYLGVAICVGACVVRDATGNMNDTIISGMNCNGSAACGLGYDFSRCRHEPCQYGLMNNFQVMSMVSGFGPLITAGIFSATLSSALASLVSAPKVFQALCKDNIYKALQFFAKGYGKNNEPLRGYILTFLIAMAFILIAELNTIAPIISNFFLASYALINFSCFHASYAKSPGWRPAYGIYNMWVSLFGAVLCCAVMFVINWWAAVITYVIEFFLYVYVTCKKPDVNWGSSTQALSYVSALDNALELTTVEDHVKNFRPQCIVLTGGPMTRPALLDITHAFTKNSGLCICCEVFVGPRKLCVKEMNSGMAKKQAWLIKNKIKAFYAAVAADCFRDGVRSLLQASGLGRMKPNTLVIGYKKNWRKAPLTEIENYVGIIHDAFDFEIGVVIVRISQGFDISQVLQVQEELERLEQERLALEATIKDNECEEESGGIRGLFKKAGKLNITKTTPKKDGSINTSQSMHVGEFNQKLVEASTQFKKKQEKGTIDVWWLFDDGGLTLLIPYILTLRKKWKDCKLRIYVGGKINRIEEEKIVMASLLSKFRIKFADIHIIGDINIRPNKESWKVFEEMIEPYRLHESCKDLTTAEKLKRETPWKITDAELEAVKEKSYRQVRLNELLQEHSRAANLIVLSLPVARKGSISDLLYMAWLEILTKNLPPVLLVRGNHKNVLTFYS

[3] = molecular target: T3, hNKCC1b (Homo sapiens, UniProt P55011); settings: cited from earlier work
T3 sequence (P55011 1-1196 isoform P55011-3): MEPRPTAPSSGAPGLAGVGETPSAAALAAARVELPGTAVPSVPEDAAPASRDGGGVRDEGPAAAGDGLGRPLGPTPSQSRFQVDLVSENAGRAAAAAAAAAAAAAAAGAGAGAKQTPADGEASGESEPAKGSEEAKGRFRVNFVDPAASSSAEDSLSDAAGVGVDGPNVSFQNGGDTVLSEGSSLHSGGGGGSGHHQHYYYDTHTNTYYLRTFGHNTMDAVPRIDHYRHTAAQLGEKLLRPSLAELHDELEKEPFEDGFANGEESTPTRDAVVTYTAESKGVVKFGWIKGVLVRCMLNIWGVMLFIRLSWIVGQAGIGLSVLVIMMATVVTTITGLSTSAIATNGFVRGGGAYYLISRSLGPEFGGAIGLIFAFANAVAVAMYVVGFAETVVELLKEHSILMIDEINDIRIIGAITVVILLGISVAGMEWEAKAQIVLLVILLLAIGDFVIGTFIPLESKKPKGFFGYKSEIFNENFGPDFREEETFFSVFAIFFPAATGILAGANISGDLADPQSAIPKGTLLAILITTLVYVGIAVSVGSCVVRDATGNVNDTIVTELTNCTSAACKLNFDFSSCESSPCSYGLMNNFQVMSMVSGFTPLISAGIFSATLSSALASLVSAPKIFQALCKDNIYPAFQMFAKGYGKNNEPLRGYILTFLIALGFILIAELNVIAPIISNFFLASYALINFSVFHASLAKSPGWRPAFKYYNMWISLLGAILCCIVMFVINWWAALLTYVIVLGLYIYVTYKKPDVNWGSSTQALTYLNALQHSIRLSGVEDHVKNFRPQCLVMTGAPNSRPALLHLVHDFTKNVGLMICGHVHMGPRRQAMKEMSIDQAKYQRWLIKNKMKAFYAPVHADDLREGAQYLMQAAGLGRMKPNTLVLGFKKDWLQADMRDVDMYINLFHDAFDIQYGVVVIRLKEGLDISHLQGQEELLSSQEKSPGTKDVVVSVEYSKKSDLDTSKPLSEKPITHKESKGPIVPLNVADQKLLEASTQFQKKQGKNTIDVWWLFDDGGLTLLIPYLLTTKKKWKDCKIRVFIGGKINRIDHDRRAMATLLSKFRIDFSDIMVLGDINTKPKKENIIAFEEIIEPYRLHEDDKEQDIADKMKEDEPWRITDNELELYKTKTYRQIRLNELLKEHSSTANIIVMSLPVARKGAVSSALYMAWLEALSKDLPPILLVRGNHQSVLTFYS

[4] = Cross-over trial dapagliflozin / bumetanide: weekly urinary excretion (Table 9); format: in vivo, healthy volunteers; settings: for Ca^++ / Glucose / K^+ / Mg^++ / Na^+ / Urate: urine, Day 1-7
[5] = in vivo; cited from earlier work
[6] = in vivo; cited from earlier work; remark: listed apart in the source
[7] = during the remainder of the day after the dose, high salt intake; cited from earlier work
[8] = in vivo; cited from earlier work; remark: listed apart in the source
[9] = 1 mg; cited from earlier work
[10] = Americas group, at four months; cited from earlier work
[11] = with spironolactone treatment, 12 patients, p<0.05, cited from earlier work
[12] = cited from earlier work

## NS(=O)(=O)c1cc(-c2nnn[nH]2)c(NCc2cccs2)cc1Cl [Azosemide]
[1]
  pIC50: 6.60
[2]
  pIC50: 5.51
[3]
  pIC50: 6.68

## CCCCNc1cc(C(=O)O)cc(S(N)(=O)=O)c1Oc1ccccc1 [Bumetanide]
[1]
  pIC50: 6.02
[2]
  pIC50: 6.60
[4]; given after one week of dapaglifozin therapy
  greater natriuresis with bumetanide: 36%
[4]
  Ca^++: 667 ± 54 mg-wk^−1
  Glucose: 0.3 ± 0.06 g-wk^−1
  K^+: 454 ± 32 mmol-wk^−1
  Mg^++: 613 ± 48 mg-wk^−1
  Na^+: 669 ± 46 mmol-wk^−1
  Urate: 2249 ± 160 mg-wk^−1
[3]
  pIC50: 6.08

## Cc1ccc([C@@H]2O[C@H](CO)[C@@H](O)[C@H](O)[C@H]2O)cc1Cc1ccc(-c2ccc(F)cc2)s1 [Canagliflozin]
[5]
  Bioavailability: 65%
  T1/2: 10 h
  Tmax: 1 to 2 h

## CCOc1ccc(Cc2cc([C@@H]3O[C@H](CO)[C@@H](O)[C@H](O)[C@H]3O)ccc2Cl)cc1 [Dapagliflozin]
[5]
  T1/2: 13 h
  Tmax: 1 to 1.5 h
[4]; given after one week of bumetanide therapy
  greater natriuresis with dapagliflozin: 190%
[4]
  Ca^++: 597 ± 76 mg-wk^−1
  Glucose: 239 ± 20 g-wk^−1
  K^+: 415 ± 24 mmol-wk^−1
  Mg^++: 548 ± 37 mg-wk^−1
  Na^+: 625 ± 15 mmol-wk^−1
  Urate: 3382 ± 187 mg-wk^−1

## OC[C@H]1O[C@@H](c2ccc(Cl)c(Cc3ccc(O[C@H]4CCOC4)cc3)c2)[C@H](O)[C@@H](O)[C@@H]1O [Empagliflozin]
[5]
  Bioavailability: 95%
  T1/2: 13 h
  Tmax: 1.5 h

## COC(=O)[C@@H]1CC2=CC(=O)CC[C@]2(C)[C@@]23O[C@@H]2C[C@@]2(C)[C@@H](CC[C@@]24CCC(=O)O4)[C@H]13 [Eplerenone]
[6]
  half-life: 4 to 6 h

## CCOc1ccc(Cc2cc([C@]34OC[C@](CO)(O3)[C@@H](O)[C@H](O)[C@H]4O)ccc2Cl)cc1 [Ertugliflozin]
[5]
  Bioavailability: 87%
  T1/2: 12.5 h
  Tmax: 2 to 3 h

## C=C(CC)C(=O)c1ccc(OCC(=O)O)c(Cl)c1Cl [Ethacrynic acid]
[2]
  pIC50: 5.29

## NS(=O)(=O)c1cc(C(=O)O)c(NCc2ccco2)cc1Cl [Furosemide]
[7]
  reduction of GFR: circa 23%
[2]
  pIC50: 5.29

## OC[C@H]1O[C@@H](c2ccc(F)c(Cc3cc4ccccc4s3)c2)[C@H](O)[C@@H](O)[C@@H]1O [Ipragliflozin]
[5]
  Bioavailability: 92%
  T1/2: 15 h

## O=C1CC[C@@]2(O)[C@H]3Cc4ccc(O)c5c4[C@@]2(CCN3CC2CC2)[C@H]1O5 [Naltrexone, 17-(cyclopropylmethyl)-4,5-epoxy-3,14-dihydroxymorphinan-6-one]
[8]
  fraction metabolized: > 98%

## COc1cc2nc(N3CCN(C(=O)c4ccco4)CC3)nc(N)c2cc1OC [Prazosin]
[9]
  Oral bioavailability: 56.9%

## CCOc1ccc(Cc2cc([C@@H]3O[C@H](SC)[C@@H](O)[C@H](O)[C@H]3O)ccc2Cl)cc1 [Sotagliflozin]
[5]
  Bioavailability: 70%
  T1/2: 2.5 h
  Tmax: 1.9 h

## CC(=O)S[C@@H]1CC2=CC(=O)CC[C@]2(C)[C@H]2CC[C@@]3(C)[C@@H](CC[C@@]34CCC(=O)O4)[C@H]12 [Spironolactone]
[10]
  patients discontinuing the study drug due to hyperkalemia: 25.2%
[11]; vs. 13.6±10.8
  hypoxic index: 6.7±6.6 events/h
[11]; vs. 39.8±19.5
  AHI: 22.0±6.8 events/h
[6]
  half-life: about 1.5 h
  time to steady state concentration: 7 to 10 days

## CCc1ccc(Cc2ccc3c(c2)[C@]2(OC3)O[C@H](CO)[C@@H](O)[C@H](O)[C@H]2O)cc1 [Tofogliflozin]
[5]
  Bioavailability: 98%
  T1/2: 5.5 h
  Tmax: 1.1 h

## Cc1cccc(Nc2ccncc2S(=O)(=O)NC(=O)NC(C)C)c1 [Torsemide]
[1]
  pIC50: 5.21
[2]
  pIC50: 6.52
[12]; in vivo
  Bioavailability: 80-100%
  duration of action: 3 to 5 h
[12]; unchanged in chronic renal failure
  plasma half-life: 3 to 5 h
[3]
  pIC50: 5.09

## C[C@]12CCC(=O)C=C1C=C[C@@H]1[C@@H]2CC[C@@]2(C)[C@H]1CC[C@@]21CCC(=O)O1 [canrenone]
[6]
  half-life: more than 15 hours
